Reference: patent US20050197365A1, “Diamino thiazoloindan derivatives and their use” (priority 2004, published 2005)

What was measured:
[1] = test system: MPP+ treated PC-12 cells; experiment: Effect on MPP+ treated PC-12 cells (neuroprotection, LDH release); assay type: cell-based; details: 1000 μM MPP+ for 48 hours, LDH in medium
Method: Pheochromocytoma PC-12 cells (at a density of 200,000 cells/well) were cultured for 10 days with 50 ng/ml NGF on 6-well culture dishes coated with […] rat tail type I collagen (BD Biosciences, Bedford, Mass., USA). At the day of the experiment the morphological differentiation of the cells was very advanced (typical network formation). In order to initiate the neurotoxic insult, cells were treated with 1000 μM of 1-methyl-4-phenylpyrdinium (MPP+) iodide salt from RBI chemicals (Natick, Mass., USA) for 48 hours in the absence or presence of tested compounds, added to the culture 30 min. prior to MPP+ administration. […] At the cellular level, neuronal cell death is induced by several mechanisms including pathological concentrations of intracellular calcium and free oxygen radicals. Therefore the positive controls in this experiment were nimodipine at the concentration of 10 μM (RBI chemicals, Natick, Mass., USA) (a potent L-type calcium channel blocker) and 4-hydroxy-2,2,6,6-tetramethylpiperidyne-1-oxyl (tempol, a potent antioxidant) at a concentration of 500 μM, (Sigma, St Louis, Mo., USA). At the end of the experiment cell death was measured by assessing Lactate dehydrogenase (LDH) activity in the medium. High medium LDH indicated increased neuronal death that promoted leakage of this cytoplasmic enzyme into the medium.
Measuring lactate dehydrogenase activity in the medium was performed using a Sigma Diagnostics LD-L reagent. LDH activity was spectrophotometrically monitored at 340 nm by following the rate of conversion of oxidized nicotinamide adenine dinucleotide (NAD^+) to the reduced form of (NADH). Total LDH of each culture (extracellular+intracellular) was obtained by measuring LDH in the medium after freezing and thawing of the cultures. Basal LDH release was measured in untreated cultures (no MPP+). The neurotoxic effect was calculated according to the formula: (LDHs−LDHb)/LDHt×100. (s=sample; b=basal; t=total). Each compound was tested in sixplicate.
To calculate the percentage of neuroprotection for each set of sixplicate experiments, the average neurotoxicity was calculated and the following calculation was undertaken: 100−([neurotoxicity test compound/neurotoxicity MPP^+]×100).

[2] = test system: EAE; experiment: Experimental Allergic Encephalomyelitis (EAE) model of MS; assay type: in vivo, mice; details: for incidence Value: mice, 10/group; for GMS % inhibition (first GMS column) / GMS % inhibition (second GMS column) / incidence % inhibition: vs methyl cellulose control; for GMS Value (first GMS column) / GMS Value (second GMS column): EAE score scale 0-5
[3] = Dose 1 μM, NGF-differentiated PC-12 cells
[4] = Dose 10 μM, NGF-differentiated PC-12 cells
[5] = 2 × 10 mg/kg oral (twice a day)

SMILES | % neuroprotection [1, 3] | % neuroprotection [1, 4] | Mean duration ([2]; 2 × 5 mg/kg oral) [days] | incidence Value ([2]; 2 × 5 mg/kg oral (twice a day)) | GMS % inhibition (first GMS column) ([2]; 2 × 5 mg/kg oral) [%] | GMS % inhibition (second GMS column) ([2]; 2 × 5 mg/kg oral) [%] | incidence % inhibition ([2]; 2 × 5 mg/kg oral) [%] | GMS Value (first GMS column) ([2]; 2 × 5 mg/kg oral) | GMS Value (second GMS column) ([2]; 2 × 5 mg/kg oral) | Mean duration ([2]; 2 × 10 mg/kg oral) [days] | incidence Value [2, 5] | GMS % inhibition (first GMS column) ([2]; 2 × 10 mg/kg oral) [%] | GMS % inhibition (second GMS column) ([2]; 2 × 10 mg/kg oral) [%] | incidence % inhibition ([2]; 2 × 10 mg/kg oral) [%] | GMS Value (first GMS column) ([2]; 2 × 10 mg/kg oral) | GMS Value (second GMS column) ([2]; 2 × 10 mg/kg oral) | % neuroprotection ([1]; Dose 1000 μM (positive control)) [%]
C#CCNC1CCc2cc3sc(N)nc3cc21.Cl.Cl (stereo not drawn) [Compound A-1, N5-prop-2-ynyl-6,7-dihydro-5H-1-thia-3-aza-s-indacene-2,5-diamine diHCl] | 50% | 60% | 3.0 ± 6.3 | 2/10 | 40.0 | 33.3 | 50.0 | 0.6 ± 1.3 | 0.4 ± 0.8 | 1.8 ± 5.7 | 1/10 | 70.0 | 66.7 | 75.0 | 0.3 ± 0.9 | 0.2 ± 0.6 | 
C#CCNC1CCc2ccc3nc(N)sc3c21.Cl.Cl (stereo not drawn) [Compound B-1, N8-prop-2-ynyl-7,8-dihydro-6H-1-thia-3-aza-as-indacene-2,8-diamine diHCl] | 60-87% | 58-81% | 0.1 ± 0.3 | 1/10 | 90.0 | 99.2 | 75.0 | 0.1 ± 0.3 | 0.005 ± 0.02 | 3.3 ± 7.0 | 2/10 | 60.0 | 50.0 | 50.0 | 0.4 ± 1.0 | 0.3 ± 0.8 | 
CC1(C)CC(O)CC(C)(C)N1[O] [Tempol, 4-hydroxy-2,2,6,6-tetramethylpiperidyne-1-oxyl, reference compound] |  |  |  |  |  |  |  |  |  |  |  |  |  |  |  |  | 100
